{"source": "patent US11807650B2", "about": "“NMDA receptor modulators and uses thereof” (Novartis AG, priority 2016, dated 2023)", "data": [{"biological_target": "T1, human GRIN1 (transcript variant NR1-3) and GRIN2D expressed in Xenopus oocytes (Homo sapiens, UniProt O15399)", "T1 construct": "GenScript (GRIN2D synthesis) SC115601; host or cells: Xenopus oocytes injected with cRNA (1 GluN1 : 2 GluN2)", "T1 sequence (O15399 28-1336, other chains not shown)": "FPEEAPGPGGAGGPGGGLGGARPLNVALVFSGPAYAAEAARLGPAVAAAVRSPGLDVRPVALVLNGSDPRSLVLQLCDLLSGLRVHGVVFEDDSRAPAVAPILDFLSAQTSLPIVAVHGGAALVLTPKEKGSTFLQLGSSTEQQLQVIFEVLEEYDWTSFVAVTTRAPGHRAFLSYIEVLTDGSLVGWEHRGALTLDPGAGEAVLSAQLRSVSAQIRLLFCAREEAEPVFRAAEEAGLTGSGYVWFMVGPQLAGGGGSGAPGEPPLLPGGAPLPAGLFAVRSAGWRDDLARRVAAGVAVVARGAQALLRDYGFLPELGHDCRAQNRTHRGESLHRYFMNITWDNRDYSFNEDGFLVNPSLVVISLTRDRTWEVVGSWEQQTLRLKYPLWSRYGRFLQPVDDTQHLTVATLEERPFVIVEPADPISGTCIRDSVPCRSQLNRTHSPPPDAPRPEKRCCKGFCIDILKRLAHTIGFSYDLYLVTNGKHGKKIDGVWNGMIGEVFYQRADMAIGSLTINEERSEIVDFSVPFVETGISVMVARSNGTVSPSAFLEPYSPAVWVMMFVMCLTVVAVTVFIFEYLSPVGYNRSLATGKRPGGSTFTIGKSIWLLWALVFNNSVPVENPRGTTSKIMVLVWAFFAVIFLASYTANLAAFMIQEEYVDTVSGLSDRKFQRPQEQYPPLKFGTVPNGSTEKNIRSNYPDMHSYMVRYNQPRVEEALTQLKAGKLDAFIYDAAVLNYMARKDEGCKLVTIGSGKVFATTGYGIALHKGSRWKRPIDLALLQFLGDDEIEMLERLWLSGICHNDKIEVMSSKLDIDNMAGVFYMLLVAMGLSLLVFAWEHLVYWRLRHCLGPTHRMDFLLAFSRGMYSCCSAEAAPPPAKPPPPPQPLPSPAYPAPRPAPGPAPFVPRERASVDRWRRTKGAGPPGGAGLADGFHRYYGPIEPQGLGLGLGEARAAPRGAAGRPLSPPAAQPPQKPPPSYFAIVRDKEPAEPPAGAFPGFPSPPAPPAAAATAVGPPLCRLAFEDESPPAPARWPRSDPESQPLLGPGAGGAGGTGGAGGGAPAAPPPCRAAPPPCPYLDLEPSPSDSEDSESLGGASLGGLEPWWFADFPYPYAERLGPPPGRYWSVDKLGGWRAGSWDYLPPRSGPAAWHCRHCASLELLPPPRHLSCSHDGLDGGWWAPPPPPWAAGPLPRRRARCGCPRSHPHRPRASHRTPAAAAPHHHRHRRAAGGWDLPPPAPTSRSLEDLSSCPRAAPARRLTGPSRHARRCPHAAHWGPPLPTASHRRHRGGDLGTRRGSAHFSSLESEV", "assay": "NR2D oocyte potentiation assay (two-electrode voltage clamp)", "format": "cell-based", "details": "10 uM test compound; glutamate and glycine 10 μM each; holding potential −40 mV", "experimental": "NR2D Oocyte Potentiation Assay. Xenopus oocytes (Xenopus 1, Dexter, Mich.) were initially separated from the lobes of an ovary using surgical forceps; they were then defolliculated by constant agitation at room temperature in OR-2 buffer (82.5 mM NaCl; 2.5 mM KCl; 1 mM MgCl2; 5 mM HEPES; pH 7.4) containing 2 mg/ml collagenase Type 1 (Fisher Scientific, USA) for 1.5-2 hours. The cells were then gently aspirated with a Pasteur pipette to remove the follicular tissue; this was followed by washing three times with OR-2 to remove all traces of collagenase. The oocytes were then washed in ND-96 (96 mM NaCl, 2 mM KCl, 1.8 mM CaCl2, 1 mM MgCl2, 5 mM HEPES, 50 ng/L gentamycin, 100 units/ml penicillin and 100 μg/ml streptomycin; pH 7.6) three times and this was followed by incubation in ND-96 at room temperature with mild agitation for 15 minutes; subsequently they were stored for at least 2 hours at 16° C. before sorting and selection for injection. Oocytes selected for injection were incubated overnight in ND-96 at 16° C.\nThe human GRIN1 (transcript variant NR1-3 (Origene, SKU #: SC115601, Rockville, Md.) and GRIN2D (NCBI locus NM_000836, sequence optimized and synthesized by GenScript) were linearized and transcribed using the mMessage mMachine kit (Life Technologies) and promoters SP6 (for GluN1) and T7 (for GluN2D). cRNAs were mixed together at a ratio of 1 GluN1:2 GluN2. Each oocyte was injected with 50 nL of cRNA and stored in ND96 (96 mM NaCl, 2 mM KCl, 1.8 mM CaCl2, 1 mM MgCl2, 5 mM HEPES, 50 ng/L gentamycin, 100 units/ml penicillin and 100 μg/ml streptomycin; pH 7.6) at 16° C. for 72 h prior to recording.\nCurrents were recorded using a two-electrode voltage-clamp amplifier (Oocyte Clamp OC-725C; Warner Instrument Corp, Hamden, Conn.), and digitized using Digidata 1550A and pClamp (v. 10) software (Molecular Devices, Sunnyvale, Calif.). Electrodes were filled with 3 M KCl and had resistances that ranged from 0.2-1 MO. All measurements were made at a holding potential of −40 mV. Cells were continuously perfused with oocyte recording solution containing 90 mM NaCl, 1 mM KCl, 0.5 mM BaCl2, and 10 mM HEPES (Ph 7.4). Glutamate and Glycine (co-agonists) were applied at respective concentrations of 10 μM each. Co-agonists were applied until a plateau was reached, and test compounds were then added in the continued presence of co-agonists until a new plateau was reached. After the addition of the last test compound concentration, the oocyte was washed with oocyte recording buffer. Fraction of current remaining was calculated as [(current in presence of test compound−background current)/(co-agonist current−background current)] and IC50 values were computed using Prism 6.0 (Graphpad).", "units": {"activation at 10 µM": "%"}, "values": [{"smiles": "CN1CSc2nc(-c3ccc(C(C)(C)C)nc3)c(C#N)c(=O)n2C1", "note": "[Example 8, 8-(6-(tert-butyl)pyridin-3-yl)-3-methyl-6-oxo-3,4-dihydro-2H,6H-pyrimido[2,1-b][1,3,5]thiadiazine-7-carbonitrile]", "activation at 10 µM": "10 to 100"}, {"smiles": "CC(C)(C)c1ncc(-c2nc3n(c(=O)c2C#N)CC(F)CS3)cn1", "note": "(stereo not drawn) [Example 17, 8-(2-tert-butylpyrimidin-5-yl)-3-fluoro-6-oxo-2H,3H, 4H,6H-pyrimido [2,1-b][1,3] thiazine-7-carbonitrile]", "activation at 10 µM": "100 to 500"}, {"smiles": "C[C@@H]1CSc2nc(-c3cnc(C(C)(C)C)c(F)c3)c(C#N)c(=O)n2C1", "note": "[Example 99, (S)-8-(6-(tert-butyl)-5-fluoropyridin-3-yl)-3-methyl-6-oxo-3,4-dihydro-2H,6H-pyrimido[2,1-b][1,3]thiazine-7-carbonitrile]", "activation at 10 µM": "> 1000"}, {"smiles": "C[C@H]1CSc2nc(-c3ccc(C(C)(C)N(C)C)nc3)c(C#N)c(=O)n2C1", "note": "[Example 133, (R)-8-(6-(2-(dimethylamino)propan-2-yl)pyridin-3-yl)-3-methyl-6-oxo-3,4-dihydro-2H,6H-pyrimido[2,1-b][1,3]thiazine-7-carbonitrile]", "NR2D Oocyte % Potentiation @ 10 uM": "Inhibitor"}, {"smiles": "C=Cc1c(-c2ccc(C(C)(C)C)cc2)nc2n(c1=O)CCCC2", "note": "[Example 14, 2-(4-(tert-butyl)phenyl)-3-vinyl-6,7,8,9-tetrahydro-4H-pyrido[1,2-a]pyrimidin-4-one]", "activation at 10 µM": "< 10"}, {"smiles": "CSc1c(-c2ccc(C(C)(C)C)nc2)nc2n(c1=O)CCCC2", "note": "[Example 27, 2-(6-tert-butylpyridin-3-yl)-3-(methylsulfanyl)-4H,6H,7H, 8H,9H-pyrido[1,2-a] pyrimidin-4-one]", "activation at 10 µM": "< 10"}, {"smiles": "COC[C@H]1CSc2nc(-c3cnc(C(C)(C)C)c(F)c3)c(C#N)c(=O)n2C1", "note": "[Example 166, (S)-8-(6-(tert-butyl)-5-fluoropyridin-3-yl)-3-(methoxymethyl)-6-oxo-3,4-dihydro-2H,6H-pyrimido[2,1-b][1,3]thiazine-7-carbonitrile]", "activation at 10 µM": "> 1000"}, {"smiles": "CCN1CSc2nc(-c3ccc(C(C)(C)C)cc3)c(C#N)c(=O)n2C1", "note": "[Example 7, 8-(4-(tert-butyl)phenyl)-3-ethyl-6-oxo-3,4-dihydro-2H,6H-pyrimido[2,1-b][1,3,5]thiadiazine-7-carbonitrile]", "activation at 10 µM": "10 to 100"}, {"smiles": "N#Cc1c(-c2ccnc(C3CC3)n2)nc2n(c1=O)CCCS2", "note": "[Example 180, 8-(2-cyclopropylpyrimidin-4-yl)-6-oxo-2H,3H,4H,6H-pyrimido[2,1-b][1,3]thiazine-7-carbonitrile]", "activation at 10 µM": "< 10"}, {"smiles": "CC(C)(C)c1ccc(-c2nc3sccn3c(=O)c2C#N)cn1", "note": "[Example 3, 7-(6-(tert-butyl)pyridin-3-yl)-5-oxo-5H-thiazolo[3,2-a]pyrimidine-6-carbonitrile]", "activation at 10 µM": "100 to 500"}, {"smiles": "CCC1CSc2nc(-c3ccc(C(C)(C)C)nc3)c(C#N)c(=O)n2C1", "note": "(stereo not drawn) [Example 81, 8-(6-tert-butylpyridin-3-yl)-3-ethyl-6-oxo-2H,3H,4H, 6H-pyrimido [2,1-b][1,3] thiazine-7-carbonitrile]", "activation at 10 µM": "> 1000"}, {"smiles": "CC1CSc2nc(-c3ccc(C(C)(C)O)nc3)c(C#N)c(=O)n2C1", "note": "(stereo not drawn) [Example 85, 8-(6-(2-hydroxypropan-2-yl)pyridin-3-yl)-3-methyl-6-oxo-3,4-dihydro-2H,6H-pyrimido[2,1-b][1,3]thiazine-7-carbonitrile]", "activation at 10 µM": "10 to 100"}, {"smiles": "C[C@H]1CSc2nc(-c3cnc(C(C)(C)C)nc3)c(C#N)c(=N)n2C1", "note": "[Example 100, (R)-8-(2-(tert-butyl)pyrimidin-5-yl)-6-imino-3-methyl-3,4-dihydro-2H,6H-pyrimido[2,1-b][1,3]thiazine-7-carbonitrile]", "activation at 10 µM": "> 1000"}, {"smiles": "COc1cc(C(C)(C)C)ccc1-c1nc2n(c(=O)c1C#N)CCCS2", "note": "[Example 193, 8-(4-tert-butyl-2-methoxyphenyl)-6-oxo-2H,3H,4H,6H-pyrimido[2,1-b][1,3]thiazine-7-carbonitrile]", "activation at 10 µM": "100 to 500"}, {"smiles": "CC(C)(C)c1ncc(-c2nc3n(c(=O)c2C#N)CCS3)cn1", "note": "[Example 4, 7-(2-(tert-butyl)pyrimidin-5-yl)-5-oxo-2,3-dihydro-5H-thiazolo[3,2-a]pyrimidine-6-carbonitrile]", "activation at 10 µM": "100 to 500"}, {"smiles": "COCC1CSc2nc(-c3cnc(C(C)(C)C)c(F)c3)c(C#N)c(=O)n2C1", "note": "(stereo not drawn) [Example 125, 8-(6-(tert-butyl)-5-fluoropyridin-3-yl)-3-(methoxymethyl)-6-oxo-3,4-dihydro-2H,6H-pyrimido[2,1-b][1,3]thiazine-7-carbonitrile]", "activation at 10 µM": "> 1000"}, {"smiles": "COCOC[C@@H]1CSc2nc(-c3cnc(C(C)(C)C)c(F)c3)c(C#N)c(=O)n2C1", "note": "[Example 172, (R)-8-(6-(tert-butyl)-5-fluoropyridin-3-yl)-3-((methoxymethoxy)methyl)-6-oxo-3,4-dihydro-2H,6H-pyrimido[2,1-b][1,3]thiazine-7-carbonitrile]", "activation at 10 µM": "> 1000"}, {"smiles": "C[C@H]1CSc2nc(-c3cnc(C(C)(C)C)c(F)c3)c(C#N)c(=N)n2C1", "note": "[Example 112, (R)-8-(6-(tert-butyl)-5-fluoropyridin-3-yl)-6-imino-3-methyl-3,4-dihydro-2H,6H-pyrimido[2,1-b][1,3]thiazine-7-carbonitrile]", "activation at 10 µM": "> 1000"}, {"smiles": "CCOC(=O)NCC1CSc2nc(-c3cnc(C(C)(C)C)c(F)c3)c(C#N)c(=O)n2C1", "note": "(stereo not drawn) [Example 147, ethyl ((8-(6-(tert-butyl)-5-fluoropyridin-3-yl)-7-cyano-6-oxo-3,4-dihydro-2H,6H-pyrimido[2,1-b][1,3]thiazin-3-yl)methyl)carbamate]", "activation at 10 µM": "> 1000"}, {"smiles": "CC(C)(C)c1ccc(-c2nc3n(c(=O)c2Br)CCCS3)cc1", "note": "[Example 28, 7-bromo-8-(4-(tert-butyl)phenyl)-3,4-dihydro-2H,6H-pyrimido[2,1-b][1,3]thiazin-6-one]", "activation at 10 µM": "100 to 500"}, {"smiles": "CC(=O)NC[C@@H]1CSc2nc(-c3cnc(C(C)(C)C)c(F)c3)c(C#N)c(=O)n2C1", "note": "[Example 169, (S)-N-((8-(6-(tert-butyl)-5-fluoropyridin-3-yl)-7-cyano-6-oxo-3,4-dihydro-2H,6H-pyrimido[2,1-b][1,3]thiazin-3-yl)methyl)acetamide]", "activation at 10 µM": "> 1000"}, {"smiles": "C[C@@H]1CSc2nc(-c3cnc(C(C)(C)C)nc3)c(C#N)c(=N)n2C1", "note": "[Example 101, (S)-8-(2-(tert-butyl)pyrimidin-5-yl)-6-imino-3-methyl-3,4-dihydro-2H,6H-pyrimido[2,1-b][1,3]thiazine-7-carbonitrile]", "activation at 10 µM": "> 1000"}, {"smiles": "CSc1cc(-c2nc3n(c(=O)c2C#N)CCCS3)cnc1C(C)(C)C", "note": "[Example 62, 8-(6-(tert-butyl)-5-(methylthio)pyridin-3-yl)-6-oxo-3,4-dihydro-2H,6H-pyrimido[2,1-b][1,3]thiazine-7-carbonitrile]", "activation at 10 µM": "> 1000"}, {"smiles": "CC1CSc2cc(-c3cnc(C4(C)CC4)c(F)c3)c(C#N)c(=O)n2C1", "note": "(stereo not drawn) [Example 135, 8-(5-fluoro-6-(1-methylcyclopropyl)pyridin-3-yl)-3-methyl-6-oxo-3,4-dihydro-2H,6H-pyrido[2,1-b][1,3]thiazine-7-carbonitrile]", "activation at 10 µM": "> 1000"}, {"smiles": "CC1CSc2nc(-c3ccc(C(C)(CF)CF)nc3)c(C#N)c(=O)n2C1", "note": "(stereo not drawn) [Example 155, 8-(6-(1,3-difluoro-2-methylpropan-2-yl)pyridin-3-yl)-3-methyl-6-oxo-3,4-dihydro-2H,6H-pyrimido[2,1-b][1,3]thiazine-7-carbonitrile]", "activation at 10 µM": "100 to 500"}, {"smiles": "CC(C)(C)OCC1CSc2nc(-c3cnc(C(C)(C)C)c(F)c3)c(C#N)c(=O)n2C1", "note": "(stereo not drawn) [Example 173, 3-(tert-butoxymethyl)-8-(6-(tert-butyl)-5-fluoropyridin-3-yl)-6-oxo-3,4-dihydro-2H,6H-pyrimido[2,1-b][1,3]thiazine-7-carbonitrile]", "activation at 10 µM": "10 to 100"}, {"smiles": "CC(C)C1CSc2nc(-c3ccc(C(C)(C)C)nc3)c(C#N)c(=O)n2C1", "note": "(stereo not drawn) [Example 80, 8-(6-(tert-butyl)pyridin-3-yl)-3-isopropyl-6-oxo-3,4-dihydro-2H,6H-pyrimido[2,1-b][1,3]thiazine-7-carbonitrile]", "activation at 10 µM": "100 to 500"}]}]}
